The source made the active and inactive calls.
Key:
Type in all cases: functional
[1] = test system: NCI-H322M; assay: Antiproliferative activity against human NCI-H322M cells at 10 uM assessed as cell growth inhibition relative to control
[2] = test system: HCC 2998; assay: Antiproliferative activity against human HCC2998 cells at 10 uM assessed as cell growth inhibition relative to control
[3] = test system: HCT-116; assay: Antiproliferative activity against human HCT116 cells at 10 uM assessed as cell growth inhibition relative to control
[4] = test system: SW-620; assay: Antiproliferative activity against human SW620 cells at 10 uM assessed as cell growth inhibition relative to control
[5] = test system: NCI-H23; assay: Antiproliferative activity against human NCI-H23 cells at 10 uM assessed as cell growth inhibition relative to control
[6] = test system: T47D; assay: Antiproliferative activity against human T47D cells at 10 uM assessed as cell growth inhibition relative to control
[7] = test system: Hs-578T; assay: Antiproliferative activity against human Hs 578T cells at 10 uM assessed as cell growth inhibition relative to control
[8] = test system: NCI-H460; assay: Antiproliferative activity against human NCI-H460 cells at 10 uM assessed as cell growth inhibition relative to control
[9] = test system: HCT-15; assay: Antiproliferative activity against human HCT15 cells at 10 uM assessed as cell growth inhibition relative to control
[10] = test system: SN12C; assay: Antiproliferative activity against human SN12C cells at 10 uM assessed as cell growth inhibition relative to control
[11] = test system: PC-3; assay: Antiproliferative activity against human PC3 cells at 10 uM assessed as cell growth inhibition relative to control
[12] = test system: K562; assay: Antiproliferative activity against human K562 cells at 10 uM assessed as cell growth inhibition relative to control
[13] = test system: OVCAR-4; assay: Antiproliferative activity against human OVCAR4 cells at 10 uM assessed as cell growth inhibition relative to control
[14] = test system: KM12; assay: Antiproliferative activity against human KM12 cells at 10 uM assessed as cell growth inhibition relative to control
[15] = test system: OVCAR-8; assay: Antiproliferative activity against human OVCAR8 cells at 10 uM assessed as cell growth inhibition relative to control
[16] = test system: A549; assay: Antiproliferative activity against human A549 cells at 10 uM assessed as cell growth inhibition relative to control
[17] = test system: SF-539; assay: Antiproliferative activity against human SF539 cells at 10 uM assessed as cell growth inhibition relative to control
[18] = test system: HT-29; assay: Antiproliferative activity against human HT-29 cells at 10 uM assessed as cell growth inhibition relative to control
[19] = test system: SK-MEL-28; assay: Antiproliferative activity against human SK-MEL-28 cells at 10 uM assessed as cell growth inhibition relative to control
[20] = test system: RXF 393; assay: Antiproliferative activity against human RXF393 cells at 10 uM assessed as cell growth inhibition relative to control
[21] = test system: Malme-3M; assay: Antiproliferative activity against human MALME-3M cells at 10 uM assessed as cell growth inhibition relative to control
[22] = test system: UACC-257; assay: Antiproliferative activity against human UACC257 cells at 10 uM assessed as cell growth inhibition relative to control
[23] = test system: RPMI8266; assay: Antiproliferative activity against human […] cells at 10 uM assessed as cell growth inhibition relative to control
[24] = test system: MOLT-4; assay: Antiproliferative activity against human MOLT4 cells at 10 uM assessed as cell growth inhibition relative to control
[25] = test system: HOP-92; assay: Antiproliferative activity against human HOP92 cells at 10 uM assessed as cell growth inhibition relative to control
[26] = test system: NCI-H522; assay: Antiproliferative activity against human NCI-H522 cells at 10 uM assessed as cell growth inhibition relative to control
[27] = test system: U-251; assay: Antiproliferative activity against human U251 cells at 10 uM assessed as cell growth inhibition relative to control
[28] = test system: SF-295; assay: Antiproliferative activity against human SF295 cells at 10 uM assessed as cell growth inhibition relative to control
[29] = test system: COLO 205; assay: Antiproliferative activity against human COLO205 cells at 10 uM assessed as cell growth inhibition relative to control
[30] = test system: MCF7; assay: Antiproliferative activity against human MCF7 cells at 10 uM assessed as cell growth inhibition relative to control
[31] = test system: DU-145; assay: Antiproliferative activity against human DU145 cells at 10 uM assessed as cell growth inhibition relative to control
[32] = test system: HOP-62; assay: Antiproliferative activity against human HOP62 cells at 10 uM assessed as cell growth inhibition relative to control
[33] = test system: SK-MEL-5; assay: Antiproliferative activity against human SK-MEL-5 cells at 10 uM assessed as cell growth inhibition relative to control
[34] = test system: SK-MEL-2; assay: Antiproliferative activity against human SK-MEL-2 cells at 10 uM assessed as cell growth inhibition relative to control
[35] = test system: CAKI-1; assay: Antiproliferative activity against human Caki1 cells at 10 uM assessed as cell growth inhibition relative to control
[36] = test system: SNB-19; assay: Antiproliferative activity against human SNB19 cells at 10 uM assessed as cell growth inhibition relative to control
[37] = test system: M14; assay: Antiproliferative activity against human M14 cells at 10 uM assessed as cell growth inhibition relative to control
[38] = test system: BT-549; assay: Antiproliferative activity against human BT549 cells at 10 uM assessed as cell growth inhibition relative to control
[39] = test system: MDA-MB-468; assay: Antiproliferative activity against human MDA-MB-468 cells at 10 uM assessed as cell growth inhibition relative to control
[40] = test system: OVCAR-3; assay: Antiproliferative activity against human OVCAR-3 cells at 10 uM assessed as cell growth inhibition relative to control
[41] = test system: SK-OV-3; assay: Antiproliferative activity against human SKOV3 cells at 10 uM assessed as cell growth inhibition relative to control
[42] = test system: UO-31; assay: Antiproliferative activity against human UO31 cells at 10 uM assessed as cell growth inhibition relative to control
[43] = test system: UACC-62; assay: Antiproliferative activity against human UACC62 cells at 10 uM assessed as cell growth inhibition relative to control
[44] = test system: 786-0; assay: Antiproliferative activity against human 786-0 cells at 10 uM assessed as cell growth inhibition relative to control
[45] = test system: ACHN; assay: Antiproliferative activity against human ACHN cells at 10 uM assessed as cell growth inhibition relative to control
[46] = test system: OVCAR-5; assay: Antiproliferative activity against human OVCAR5 cells at 10 uM assessed as cell growth inhibition relative to control
[47] = test system: HL-60(TB); assay: Antiproliferative activity against human HL-60(TB) cells at 10 uM assessed as cell growth inhibition relative to control
[48] = test system: CCRF-CEM; assay: Antiproliferative activity against human CCRF-CEM cells at 10 uM assessed as cell growth inhibition relative to control
[49] = test system: SF-268; assay: Antiproliferative activity against human SF268 cells at 10 uM assessed as cell growth inhibition relative to control
[50] = test system: MDA-MB-231; assay: Antiproliferative activity against human MDA-MB-231 cells at 10 uM assessed as cell growth inhibition relative to control
[51] = test system: EKVX; assay: Antiproliferative activity against human EKVX cells at 10 uM assessed as cell growth inhibition relative to control
[52] = test system: IGROV-1; assay: Antiproliferative activity against human IGROV1 cells at 10 uM assessed as cell growth inhibition relative to control
[53] = test system: NCI-H226; assay: Antiproliferative activity against human NCI-H226 cells at 10 uM assessed as cell growth inhibition relative to control
[54] = test system: TK-10; assay: Antiproliferative activity against human TK10 cells at 10 uM assessed as cell growth inhibition relative to control
[55] = test system: A498; assay: Antiproliferative activity against human A498 cells at 10 uM assessed as cell growth inhibition relative to control
[56] = test system: SNB-75; assay: Antiproliferative activity against human SNB75 cells at 10 uM assessed as cell growth inhibition relative to control
[57] = test system: LOX IMVI; assay: Antiproliferative activity against human LOXIMVI cells at 10 uM assessed as cell growth inhibition relative to control

Measured: growth inhibition (GI)

[N-]=[N+]=NC[C@H]1O[C@@H](n2cnc3c(NC(=O)Nc4ccccc4)ncnc32)[C@@H]2OC(=O)C[C@@H]21
inactive: all assays above

Reference: ChEMBL document CHEMBL1154382, “Preliminary SAR analysis of novel antiproliferative N(6),5'-bis-ureidoadenosine derivatives” (2009)
